Here are results for one substance from patent US9963674B2, “Age-modified cells and methods for making age-modified cells” (Memorial Sloan-Kettering Cancer Center, priority 2013, dated 2018).

For the assay, the system named is iPSC-derived mDA neurons. The assay is described as follows: Progerin modified-RNA overexpression in iPSC-derived mDA neurons, age-associated markers. The assay is classed as cell-based, human. As for the experimental part: The following is a protocol for progerin overexpression using modified-RNA in differentiating or differentiated iPSC-derived cells: • 1. Prepare progerin-modified-RNA (methods of synthesis are described in Example 9) and deliver to iPSC-derived somatic cells using Lipofectamine RNAiMAX (Life Technologies) and incubate • a. For iPSC-derived fibroblasts repeat transfection for 3 consecutive days. • i. Note: Amount/duration combination optimizes treatment for minimal toxicity and earliest significant effects. • b. For iPSC-derived dopamine neurons repeat transfection for 5 consecutive days. • i. Note: Amount/duration combination optimizes treatment for minimal toxicity and earliest significant effects. • c. For other iPSC-derived somatic cells perform pilot experiments to determine amount and duration of progerin modified-RNA. • d. Analyze maturation and/or age-associated phenotypes. • Alternatively, expression of progerin can also be achieved through the use of temperature-sensitive Sendai virus expressing progerin. Additionally, expression of progerin can be achieved by using lentivirus.
For overexpression experiments, modified-RNA was thawed on ice and adjusted to a working concentration of 100 ng/μl. Per 100,000-cell transfection, 200 ng of modified-RNA was diluted up to 10 μl in Opti-MEM medium (Life Technologies), vortexed, and incubated at room temperature for 10 minutes. In a separate tube, 0.6 μl Lipofectamine RNAiMAX® (Life Technologies) was diluted up to 10 μl in Opti-MEM and incubated for the same timeframe. The Lipofectamine mixture was then transferred to the tube containing the modified-RNA mixture, vortexed and incubated for an additional 10 minutes. The transfection mixture was added dropwise to cells that had been pre-treated with 200 ng/ml of the interferon inhibitor B18R (eBioscience, San Diego, Calif.) for at least 4 hours prior to transfection.
After 4 hours at 37° C., the entire suspension was replaced with fresh medium supplemented with B18R. Transfection of iPSC-derived fibroblasts was performed starting on day 50 of differentiation and repeated on 2 consecutive days thereafter. iPSC-derived mDA neurons were transfected starting on day 65 or day 120 of differentiation and repeated on 4 consecutive days thereafter. The additional 2 days of transfections were done in order to establish a phenotype in iPSC-derived mDA neurons. Cells were analyzed one day after the final transfection.
Cells were fixed in 4% paraformaldehyde for 15 minutes. Blocking was performed in phosphate-buffered saline supplemented with 1% BSA, and 0.3% Triton X-100 for 30 minutes to 1 hour. Cells were stained overnight at 4° C. with primary antibodies diluted in blocking buffer. Following several washes, cells were stained with appropriate Alexa Fluor-labeled secondary antibodies (Molecular Probes, Carlsbad, Calif.) at 1:500 in blocking buffer for 30 minutes to 3 hours at room temperature. Cells were counterstained with 4′,6-diamidino-2-phenylindole (DAPI; Thermo Fisher, Rockford, Ill.) to visualize nuclei. Images were acquired with an Olympus IX81 microscope using a Hamamatsu ORCA CCD camera.
Passage-matched cells were scored from three independent experiments. Where necessary due to bias against progerin-positive cells, images were processed using ImageJ software (version 1.43u, NIH). In these cases, 50 cells per condition were assessed for each independent experiment. Data are presented as mean±standard error of means (SEM). […]

Where [1] appears, read: modified-RNA 5 days, GFP-positive mDA neurons.

With “GFP-progerin: progerin (truncated lamin A) fused to GFP, SEQ ID No. 2, overexpressed via modified-RNA or hSyn lentivirus”, under “modified-RNA 3 days, iPSC-derived mDA neurons”, the “phenotype after acute 3-day overexpression” value was “no obvious phenotype”. Under setting [1], the “DNA damage (γH2AX foci)” value is on record as “increased accumulation of DNA damage”; the “nuclear folding and blebbing” value is “enhanced nuclear folding and blebbing”. For the same substance, under “modified-RNA 5 days, iPSC-mDA neurons, GFP-progerin vs nuclear-GFP”, the “LAP2α, H3K9me3 and HP1γ immunocytochemistry” value was “no difference”. Besides, the mitochondrial superoxide entry (modified-RNA 5 days, mDA neurons) is on record as “signs of mitochondrial dysfunction”.
